Test results published in US20040147561A1, “Pyrid-2-one derivatives and methods of use” (priority 2002, published 2004).

assay: Cell proliferation assay (BrdU incorporation); format: cell-based; settings: Homo sapiens, 48 h incubation, cell line not given, read-out: inhibited proliferation IC50
Protocol: Cell proliferation was measured using a colorimetric immunoassay (B/M Roche #164 7229), based on the measurement of pyrimidine analog BrdU incorporation during DNA synthesis in proliferating cells. Cells, e.g., human PC-3 prostate carconima cells, huFSF normal human foreskin fibroblast cells, HCT 116 human colon carcinoma cells or HT 29 human colon carcinoma cells, were cultured in a 96-well plate for 24 h, until a cell count of 3×10^3 to 6×10^3 cells per well in duplicate wells were achieved, in a well volume of 200 μL. The media was changed and 1 μL of 200× control inhibitors or compounds was added to each well. Cells are incubated for 48 h at 37° C. The cells were labeled with BrdU for 4 h at 37° C. The labeling medium was removed and in one step, the cells were fixed and the DNA was denatured (30 min at RT). Anti-BrdU-POD antibody was added to bind to the BrdU incorporated in newly synthesized cellular DNA (60-90 min at RT). The cells were washed 3× with washing buffer, substrate (100 μL) was added and the cells were incubated for 10 min at RT. The substrate reaction was stopped by adding 25 μL of 1M H2SO4. The amount of BrdU incorporated was quantified by measuring the absorbance at 450 nm using ELISA reader. IC50's were calculated using GraFit (Sigma).

Compound	IC50
CCOC(=O)c1cc(-c2csc(-c3ccncc3)n2)c(=O)[nH]c1CC [Example 1, Ethyl 2-ethyl-6-oxo-5-(2-(4-pyridinyl)-1,3-thiazol-4-yl)-1,6-dihydro-3-pyridinecarboxylate]	< 1000 nM
CCOC(=O)c1cc(-c2csc(CS(=O)(=O)c3cccs3)n2)c(=O)[nH]c1CC [Example 2, Ethyl 2-ethyl-6-oxo-5-{2-[(thienylsulfonyl)methyl](1,3-thiazol-4-yl)}-1,6-dihydro-3-pyridinecarboxylate]	< 1000 nM
CCOC(=O)c1cc(-c2csc(CS(=O)(=O)c3ccccc3)n2)c(=O)[nH]c1CC [Example 3, Ethyl 2-ethyl-6-oxo-5-{2-[(phenylsulfonyl)methyl](1,3-thiazol-4-yl)}-1,6-dihydro-3-pyridinecarboxylate]	< 1000 nM
CCOC(=O)c1cc(-c2csc(CS(=O)(=O)c3ccccc3)n2)c(=O)[nH]c1C(C)C [Example 12, Ethyl 2-isopropyl-6-oxo-5-{2-[(phenylsulfonyl)methyl](1,3-thiazol-4-yl)}-1,6-dihydro-3-pyridinecarboxylate]	< 1000 nM
CCOC(=O)c1cc(-c2csc(CS(=O)(=O)c3cccs3)n2)c(=O)[nH]c1C [Example 24, Ethyl 2-methyl-6-oxo-5-{2-[(2-thienylsulfonyl)methyl](1,3-thiazol-4-yl)}-1,6-dihydro-3-pyridinecarboxylate]	< 1000 nM
CCOC(=O)c1cc(-c2csc(-c3ccnc(NCc4cccnc4)c3)n2)c(=O)[nH]c1C [Example 47, Ethyl 2-methyl-6-oxo-5-(2-(2-((3-pyridinylmethyl)amino)-4-pyridinyl)-1,3-thiazol-4-yl)-1,6-dihydro-3-pyridin carboxylate]	< 1000 nM
CCOC(=O)c1cc(-c2csc(-c3ccnc(NCCNC(C)C)c3)n2)c(=O)[nH]c1C [Example 50, Ethyl 2-methyl-5-(2-(2-((2-((1-methylethyl)amino)ethyl)amino)-4-pyridinyl)-1,3-thiazol-4-yl)-6-oxo-1,6-dihydro-3-pyridinecarboxylate]	< 1000 nM

assay: not given; settings: not given

melting point	Compound
250 °C (dec.)	CCOC(=O)c1cc(-c2csc(-c3ccnc(Cl)c3)n2)c(=O)[nH]c1C [Example 40]
240 °C (dec.)	CCOC(=O)c1cc(-c2csc(-c3ccc(OC)cc3)n2)c(=O)[nH]c1C [Example 41, Ethyl 2-methyl-6-oxo-5-{2-[4-methoxyphenyl](1,3-thiazol-4-yl)}-1,6-dihydro-3-pyridinecarboxylate]
290 °C (dec.)	CCOC(=O)c1cc(-c2csc(-c3c(Cl)cncc3Cl)n2)c(=O)[nH]c1C [Example 42, Ethyl 5-[2-(3,5-dichloro-pyridyl-4-yl)-thiazol-4-yl]-2-methyl-6-oxo-1,6-dihydro-3-pyridinecarboxylate]
230 °C (dec.)	CCOC(=O)c1cc(-c2csc(CS(C)(=O)=O)n2)c(=O)[nH]c1C [Example 43, Ethyl 5-(2-{[(methyl)sulfonyl]methyl}(1,3-thiazol-4-yl))-2-methyl-6-oxo-1,6-dihydro-3-pyridinecarboxylate]
300 °C (dec.)	CCOC(=O)c1cc(-c2csc(-c3sccc3CS(=O)(=O)c3ccc(Cl)cc3)n2)c(=O)[nH]c1C [Example 44]
260 °C (dec.)	CCOC(=O)c1cc(-c2csc(-c3ccnc(N4CCCCC4)c3)n2)c(=O)[nH]c1C [Example 45, Ethyl 2-methyl-6-oxo-5-(2-(2-(1-piperidinyl)-4-pyridinyl)-1,3-thiazol-4-yl)-1,6-dihydro-3-pyridinecarboxylate]
280 °C (dec.)	CCOC(=O)c1cc(-c2csc(-c3ccnc(NCc4cccnc4)c3)n2)c(=O)[nH]c1C [Example 47, Ethyl 2-methyl-6-oxo-5-(2-(2-((3-pyridinylmethyl)amino)-4-pyridinyl)-1,3-thiazol-4-yl)-1,6-dihydro-3-pyridin carboxylate]
250 °C (dec.)	CCOC(=O)c1cc(-c2csc(-c3ccnc(NCCN(CC)CC)c3)n2)c(=O)[nH]c1C [Example 52, Ethyl 5-(2-(2-((2-(diethylamino)ethyl)amino)-4-pyridinyl)-1,3-thiazol-4-yl)-2-methyl-6-oxo-1,6-dihydro-3-pyridinecarboxylate]
> 260 °C	CCOC(=O)c1cc(-c2csc(-c3ccnc(NCc4ccc(OC)cc4)c3)n2)c(=O)[nH]c1C [Example 64, Ehtyl 5-{2-[2-(4-Methoxy-benzyamino)-pyridin-4-yl]-thiazol-4-yl}-2-methyl-6-oxo-1,6-dihydro-3-pyridinecarboxylate]
> 260 °C	CCOC(=O)c1cc(-c2csc(-c3ccnc(N)c3)n2)c(=O)[nH]c1C [Example 65, Ethyl 2-methyl-6-oxo-5-(2-(2-(amino)-4-pyridinyl)-1,3-thiazol-4-yl)-1,6-dihydro-3-pyridinecarboxylate]
> 260 °C	Cc1[nH]c(=O)c(-c2csc(-c3ccnc(NCc4ccccn4)c3)n2)cc1C(=O)NCc1ccccn1 [Example 88, 2-Methyl-6-oxo-N-(2-pyridinylmethyl)-5-(2-(2-((2-pyridinylmethyl)amino)-4-pyridinyl)-1,3-thiazol-4-yl)-1,6-dihydro-3-pyridinecarboxamide]

Continued, molecule first:

Compound	melting point
CCOC(=O)c1cc(-c2csc(CS(=O)(=O)c3cccs3)n2)c(=O)[nH]c1C [Example 24, Ethyl 2-methyl-6-oxo-5-{2-[(2-thienylsulfonyl)methyl](1,3-thiazol-4-yl)}-1,6-dihydro-3-pyridinecarboxylate]	300 °C (dec.)
CCOC(=O)c1cc(-c2csc(CS(=O)(=O)C(C)(C)C)n2)c(=O)[nH]c1C [Example 38, Ethyl 5-(2-{[(tert-butyl)sulfonyl]methyl}(1,3-thiazol-4-yl))-2-methyl-6-oxo-1,6-dihydro-3-pyridinecarboxylate]	250 °C (dec.)
CCOC(=O)c1cc(-c2csc(-c3cccnc3)n2)c(=O)[nH]c1C [Example 39]	230 °C (dec.)
CCOC(=O)c1cc(-c2csc(-c3ccnc(NCC(C)C)c3)n2)c(=O)[nH]c1C [Example 46, Ethyl 2-methyl-5-(2-(2-((2-methylpropyl)amino)-4-pyridinyl)-1,3-thiazol-4-yl)-6-oxo-1,6-dihydro-3-pyridinecarboxylate]	260 °C (dec.)
CCOC(=O)c1cc(-c2csc(-c3ccnc(NCc4ccccc4)c3)n2)c(=O)[nH]c1C [Example 48, Ethyl 2-methyl-6-oxo-5-(2-(2-((phenylmethyl)amino)-4-pyridinyl)-1,3-thiazol-4-yl)-1,6-dihydro-3-pyridinecarboxylate]	290 °C (dec.)
CCOC(=O)c1cc(-c2csc(-c3ccnc(NCCNC(C)C)c3)n2)c(=O)[nH]c1C [Example 50, Ethyl 2-methyl-5-(2-(2-((2-((1-methylethyl)amino)ethyl)amino)-4-pyridinyl)-1,3-thiazol-4-yl)-6-oxo-1,6-dihydro-3-pyridinecarboxylate]	260 °C (dec.)
CCOC(=O)c1cc(-c2csc(CCn3cccc(C(F)(F)F)c3=O)n2)c(=O)[nH]c1C [Example 51, Ethyl 2-methyl-6-oxo-5-(2-(2-(2-oxo-3-(trifluoromethyl)-1(2H)-pyridinyl)ethyl)-1,3-thiazol-4-yl)-1,6-dihydro-3-pyridinecarboxylate]	250 °C (dec.)
CC(=O)NCCNc1cc(-c2nc(-c3ccc(C)[nH]c3=O)cs2)ccn1 [Example 59, N-(2-{4-[4-(6-Methyl-2-oxo-1,6-dihydropyridin-3-yl)-thiazol-2-yl]-pyridin-2-ylamino}-ethyl)-acetamide]	230 °C (dec.)
CCNCCNC(=O)c1cc(-c2csc(-c3ccnc(NCCNCC)c3)n2)c(=O)[nH]c1C [Example 66]	> 260 °C
COCc1ccc(-c2csc(-c3ccncc3)n2)c(=O)[nH]1 [Example 70, 6-(Methoxymethyl)-3-(2-(4-pyridinyl)-1,3-thiazol-4-yl)-2(1H)-pyridinone]	249 to 254 °C
CCOC(=O)c1cc(-c2csc(-c3ccnc(NC)c3)n2)c(=O)[nH]c1C [Example 83, Ethyl 2-methyl-5-(2-(2-(methylamino)-4-pyridinyl)-1,3-thiazol-4-yl)-6-oxo-1,6-dihydro-3-pyridinecarboxylate]	270 °C (dec.)
CCOC(=O)c1cc(-c2csc(-c3ccnc(NCc4ccccn4)c3)n2)c(=O)[nH]c1C [Example 90, Ethyl 2-methyl-6-oxo-5-(2-(2-((2-pyridinylmethyl)amino)-4-pyridinyl)-1,3-thiazol-4-yl)-1,6-dihydro-3-pyridinecarboxylate]	270 °C (dec.)
CCOC(=O)c1cc(-c2csc(-c3ccnc(NCCOc4ccccc4)c3)n2)c(=O)[nH]c1C [Example 91, Ethyl 2-methyl-6-oxo-5-(2-(2-((2-(phenyloxy)ethyl)amino)-4-pyridinyl)-1,3-thiazol-4-yl)-1,6-dihydro-3-pyridinecarboxylate]	270 °C (dec.)
